Assay results taken from patent US9370494B2, “Methods for treating hepatocellular carcinoma” (ABRAXIS BIOSCIENCE, LLC, priority 2010, dated 2016).
pIC50: −log10 of the molar value.

Assays:
SK-HEP1/Luc+ xenograft = SK-HEP1/Luc+ xenograft model; details: 35 mmol/kg every two days for five times
Experimental: SK-HEP1 luciferase stable clone was prepared by transfecting SK-HEP1 cells with firefly luciferase expression vector and selected with 500 ug/ml Geneticin (Gibco-BRL) for 4 weeks. Individual colonies were screened for bioluminescence activity using the Xenogen IVIS® imager (Alameda, Calif., USA). Clones with stable luminescence expression were used for in-vivo studies.
Male BALB/c nude mice at 6-8 weeks old with an average body weight of about 20 g were anesthetized by intraperitoneal injection of ketamine hydrochloride (120 mg/kg) (Fort Dodge Animal Health, Fort Dodge, Iowa, USA) plus xylazine (6 mg/kg) (Phoenix Scientific, Inc., St. Joseph, Mo., USA). Anesthetized animals then received 5×10^6 SK-HEP1/Luc+ cells suspended in 200 μl serum free medium by subcutaneous injection below the dorsal flank. Drug treatments started on day 14 after tumor cells inoculation. […] All drugs were given every two days for five times, at a dose of 35 mmol/kg. See Desai N. et al., Clinical Cancer Research, 12:1317-24 (2006). Tumor growth was monitored twice weekly by in-vivo bioluminescent imaging and by external caliper measurements using the formula of [(Length×Width^2)/2] for 24 days. For in-vivo bioluminescent imaging, 150 mg/kg D-luciferin were given by intraperitoneal injection and ten minutes after luciferin injection, mice were anesthetized by isoflurane and tumor cell viability was measured by the Xenogen IVIS® imager.

HCC cells = details: US Patent App. No. 2008/0045584; cited from earlier work
Hep3B cells = experiment: MTT cell viability assay after siRNA transfection (STMN1 knockdown); type: cell-based, human
Experimental: Cell viability was measured by MTT Assay. Cells grown in 96-well plates at density of 3000 cells per well were treated with drugs or siRNA transfection as indicated. […] The formazan formed was measured at 570 nm and cell viability is expressed as a percentage of maximum absorbance from 5 replicates in 3 independent experiments. The concentration of drug that inhibited cell survival by 50% (IC50) was determined from cell survival curves.
siRNA sequences included STMN1 siGENOME SMARTpool (si-STMN1) and siCONTROL Non-Targeting siRNA (si-mock). All siRNAs were chemically synthesized as double stranded RNA (Dharmacon) and introduced into cell lines by Lipofectamine 2000 (Invitrogen, Carlsbad, Calif., USA) according to manufacturer's instructions. Briefly, cells were incubated with 100 nM siRNA (si-STMN1 or si-mock). Six hours after transfection, medium was replaced by fresh growing medium. The expression of STMN1 was monitored by Western blot, which indicated a repressed expression for at least 3 days.

[1] = system: Hep3B, SK-HEP1 and HKCl-9 HCC cell lines; experiment: MTT cell viability assay in HCC cell lines; type: cell-based; details: Homo sapiens; 48 h; range over the 3 cell lines Hep3B, SK-HEP1, HKCl-9
Experimental: Human liver cancer cell lines Hep3B and SK-HEP1 acquired from ATCC were cultured in Dulbecco's modified Eagle medium with Glutamax-1 (Gibco-BRL, Grand Island, N.Y., USA) supplemented with 10% fetal bovine serum. HKCl-9 (as described in Chan K.Y. Y. et al., Modern Pathology 19:1546-54 (2006)) was cultured in AIMV medium (Gibco-BRL) supplemented with 1% L-Glutamine and 10% fetal bovine serum. All cells were cultured under a humidified atmosphere of 5% CO2 at 37° C.

HCC patients = details: British Journal of Cancer 1998; cited from earlier work
[2] = system: hepatitis B-related HCC patients; details: advanced stage patients; placebo 4.2 months; cited from earlier work

CC(=O)O[C@@]12CO[C@@H]1C[C@H](O)[C@@]1(C)C(=O)[C@H](O)C3=C(C)[C@@H](OC(=O)[C@H](O)[C@@H](NC(=O)OC(C)(C)C)c4ccccc4)C[C@@](O)([C@@H](OC(=O)c4ccccc4)[C@H]21)C3(C)C [Docetaxel]
Toxicity (weight loss, deaths) (SK-HEP1/Luc+ xenograft): particularly severe | Activity against HCC cells relative to paclitaxel (HCC cells): more active against HCC cells than paclitaxel

COc1cccc2c1C(=O)c1c(O)c3c(c(O)c1C2=O)C[C@@](O)(C(=O)CO)C[C@@H]3O[C@H]1C[C@H](N)[C@H](O)[C@H](C)O1 [Doxorubicin]
Fold more sensitive after STMN1 knockdown (si-STMN1 vs si-mock) (Hep3B cells): no effect | pIC50 [1]: 6.34 to 6.97 | Toxicity (weight loss, deaths) (SK-HEP1/Luc+ xenograft): particularly severe

CC(=O)O[C@H]1C(=O)[C@@]2(C)[C@H]([C@H](OC(=O)c3ccccc3)[C@]3(O)C[C@H](OC(=O)[C@H](O)[C@@H](NC(=O)c4ccccc4)c4ccccc4)C(C)=C1C3(C)C)[C@]1(OC(C)=O)CO[C@@H]1C[C@@H]2O [Paclitaxel]
Anti-cancer effect in HCC patients (HCC patients): no significant anti-cancer effect | Toxicity (weight loss, deaths) (SK-HEP1/Luc+ xenograft): particularly severe

CNC(=O)c1cc(Oc2ccc(NC(=O)Nc3ccc(Cl)c(C(F)(F)F)c3)cc2)ccn1 [Sorafenib]
Median overall survival [2]: 6.5 months
